Laboratory results from patent US20120289681A1, “CONJUGATES OF CELL-PENETRATING PEPTIDES AND PHOSPHORESCENT METALLOPORPHYRINS FOR INTRACELLULAR OXYGEN MEASUREMENT” (UNIVERSITY COLLEGE CORK, NATIONAL UNIVERSITY OF IRELAND CORK, priority 2009, published 2012).
Starred links: 1 amine or outer side, 2 acyl side, 3 side chain; linkers in the order of their positions; H or OH if unused. Non-standard residues stand in square brackets, D forms with d. Residues, ends and D or L forms follow the SMILES beside them. No end group written: not given here. *: point of attachment. X1 = CCOC(=O)CCC1=C(C)c2cc3[nH]c(cc4nc(cc5[nH]c(cc1n2)c(C)c5CCC(=O)OCC)C(C)=C4CCC(=O)NCCNC(=O)CCN1C(=O)CC(*)C1=O)c(C)c3CCC(=O)OCC; X2 = CC1=C(CCC(=O)O)c2cc3[nH]c(cc4nc(cc5[nH]c(cc1n2)c(CCC(=O)O)c5C)C(CCC(=O)*)=C4C)c(CCC(=O)O)c3C; X3 = S=C(Nc1ccc(CCN[*:1])cc1)[*:2]; PtCP‑NCS = not defined here

Experiments:
Type in all cases: cell-based
cells [1] = test: Cell-penetrating / cell-loading ability (cell line not stated)
cells [2] = test: Toxicity of the dye/probe on cells (cell line not stated)
PC12 cells [3] = test: Cell loading with O2 probes assessed by time-resolved fluorometry (TR-F plate reader)
Experimental: (§1) PC12 cells were seeded in standard 96-well plates pre-coated with collagen IV at 5×10^4 cells/well, and differentiated for 3-5 days in RPMI supplemented with 1% horse serum, P/S, and 100 ng/ml nerve growth factor. HepG2 cells were cultured in DMEM supplemented with 10% FBS, 2 mM L-glutamine and P/S, CHO—in Ex-Cell CHO DHFR^− medium supplemented with 4 mM L-glutamine and 1 μM methotrexate, HCT116—in McCoy medium supplemented with 10% FBS, 2 mM L-glutamine and P/S. The samples with cells were then loaded by incubating them with 1-10 μM of the O2 probe (prepared as described in Example 1) in regular medium at 37° C., 5% CO2, for the required period of time. After incubation the cells were washed 3 times with medium and 0.1 ml of fresh medium were added to each well. For comparison, some samples with cells were loaded with 1.2 μM PtCP-BSA probe (Luxcel Biosciences) in the presence of 6 μM Endo-Porter, as previously described (Zhdanov A V et al—J Biol Chem 283:5650-5661; 2008). The plate with loaded cells and control samples was then measured on a time-resolved fluorescence (TR-F) plate reader Victor 2 (PerkinElmer) set at 37° C., using 340 nm excitation and 642 nm emission filters. Each well was measured several times by taking TR-F intensity reading at delay time of 30 μs and gate time 100 μs. Measured TR-F signals were averaged and used to assess the efficiency of loading.
(§2) PC12 cells (seeded at 50,000 cells/well in standard 96 well plates and differentiated under standard conditions) were loaded with the cell-penetrating O2 probes in standard medium, using 1-10 uM probe concentrations, volume 100 ul/well and incubation time ranging from 20 min to 24 hrs. After probe loading wells were carefully washed three times with DME medium without phenol red and containing NGF. The same protocol was used for loading of adherent HCT116, HepG2 and SHSY5Y cells, using corresponding media.

PC12 cells [4] = test: Respiratory response of probe-loaded cells to stimulation with FCCP (lifetime on TR-F reader); conditions: 1 uM FCCP
Experimental: as §2
Measurement of the cells loaded with probes was conducted on a TR-F plate reader Victor 2 (PerkinElmer, USA) at 37° C. as described in (O'Riordan T C et al—Anal Chem 79:9414-9419; 2007), using 340 nm excitation and 642 nm emission filters. Each well was measured repetitively every 1.8 minutes by taking two TR-F intensity readings at delay times of 30 μs (T1) and 70 μs (T2), using gate time 100 μs. Fluorescence intensity values at T1 (F1) and T2 (F2) were used for calculation of lifetime values using the following equation:
Lifetime [us]=(T2−T1)/ln(F1/F2),
For cell stimulation, the plate was monitored for 10-20 min to reach O2 and temperature equilibrium and obtain basal signals, then quickly withdrawn from the reader, compounds were added to the cells (10 μL of 10× stock solution) and monitoring was resumed. Metabolic effectors were added to the cells at the following final concentrations: 1 uM FCCP, 10 uM antimycin A, 0.5 uM Valinomycin, 5 mM EGTA, 100 mM KCl.

[5] = Cell viability assessment by total cellular ATP (CellTiter-Glo); conditions: rat, differentiated PC12 cells
Experimental: Cell viability was assessed by measuring total cellular ATP in the loaded cells using CellTiter-Glo luminescent kit (Promega). PC12 cells were seeded into 96 well plates at concentration 50,000/well, differentiated for 3 days, loaded with peptide probe at a concentration 10 uM for 21 hrs, then washed. CellTiter-Glo reagent was then added to each well and chemiluminescence was measured on the Victor2 plate reader (Perkin-Elmer). The total luminescence signal of unloaded cells was taken as 100% viability. For the cells loaded with probes, no significant changes in ATP were observed and cell viability was retained at 93-95%.

HCT116 cells = test: Cell loading with O2 probes in HCT116 cells
Experimental: as §1, with “loading. […]” for “loading.”

Molecule	uptake / accumulation in PC12 cells (in words) (PC12 cells [3])	magnitude of respiratory response to FCCP in lifetime units (PC12 cells [4])	viability at 21 h, 10 µM [5]	loading of HCT116 cells (in words) (HCT116 cells)	other results
PEPP5: MTS-CGR9 peptide MGRTVVVLGGGISGLAAGCGRRRRRRRRR labelled with PTCPTE-MI derivative (PTCPTE-MI label)	–	–	–	–	cell-penetrating / cell-loading ability (in words) (cells [1]): high cell loading efficiency
Pt-tetrakis(pyridinium)porphine tetrachloride	–	–	–	–	toxicity on cells (in words) (cells [2]): high cyto- and phototoxicity
PtCP-BSA: conventional cell-impermeable O2 probe (Luxcel Biosciences), loaded with Endo-Porter transfection reagent [reference compound]	–	–	–	–	average fluorescence signals (cell loading) (PC12 cells [3]; probe loaded by transfection (Endo-Porter)): 60,000 cps
CCOC(=O)CCC1=C(C)c2cc3[nH]c(cc4nc(cc5[nH]c(cc1n2)c(C)c5CCC(=O)OCC)C(C)=C4CCC(=O)NCCNC(=O)CCN1C(=O)CC(SC[C@H](N)C(=O)N[C@@H](Cc2ccccc2)C(=O)N[C@@H](CCCNC(=N)N)C(=O)N[C@@H](CCCNC(=N)N)C(=O)N[C@@H](CCCNC(=N)N)C(=O)N[C@@H](CCCNC(=N)N)C(=O)N[C@@H](CCCNC(=N)N)C(=O)N[C@@H](CCCNC(=N)N)C(=O)N[C@@H](CCCNC(=N)N)C(=O)N[C@@H](CCCNC(=N)N)C(=O)N[C@@H](CCCNC(=N)N)C(=O)O)C1=O)c(C)c3CCC(=O)OCC (some centres unmarked) [PTCPTE-CFR9] (H-C(X1)FRRRRRRRRR-OH; N-terminus assumed)	higher intracellular uptake than PTCPTE-TAT	about 2 microseconds	93 to 95%	–	average fluorescence signals (cell loading) (PC12 cells [3]; after 24 h of loading): about 200,000 counts; increase in probe lifetime on FCCP stimulation (PC12 cells [4]): 2 us
CC1=C(CCC(=O)O)c2cc3[nH]c(cc4nc(cc5[nH]c(cc1n2)c(CCC(=O)O)c5C)C(CCC(=O)NCCc1ccc(NC(=S)N[C@@H](Cc2ccccc2)C(=O)N[C@@H](CCCNC(=N)N)C(=O)N[C@@H](CCCNC(=N)N)C(=O)N[C@@H](CCCNC(=N)N)C(=O)N[C@@H](CCCNC(=N)N)C(=O)N[C@@H](CCCNC(=N)N)C(=O)N[C@@H](CCCNC(=N)N)C(=O)N[C@@H](CCCNC(=N)N)C(=O)N[C@@H](CCCNC(=N)N)C(=O)N[C@@H](CCCNC(=N)N)C(=O)O)cc1)=C4C)c(CCC(=O)O)c3C [PtCP-FR9] (X2-[X3]FRRRRRRRRR-OH; C-terminus assumed)	low uptake	about 2 microseconds	93 to 95%	did not load well	–
PtCP-BN: PtCP-NCS derivative labelled on N-terminal amino group of BN (bactenecin) peptide GPRPLPFPRPG ({PtCP‑NCS}-GPRPLPFPRPG; reading uncertain)	low uptake	–	–	did not load well	–
